# From patent publication US20260174871A1, “THIXOTROPIC DELIVERY SYSTEMS” (UNIVERSITY OF MONTANA, priority 2019, published 2026)
# Like-named read-outs stand apart in the source and are kept apart here.
# How the values were obtained:
# S. aureus 13709 [1] = assay: Kill kinetics of ciprofloxacin with or without gels; assay type: cell-based, Staphylococcus aureus
# Protocol: (§1) Growth was measured by sampling media placed above the thixogel and then quantifying colony forming units (CFU's) by serial dilution.
# P. aeruginosa 27853 [2] = assay: as above; assay type: cell-based, Pseudomonas aeruginosa
# Protocol: as §1
# S. aureus 13709 [3] = assay: Minimum Inhibitory Concentration (MIC) of antibiotics with or without thixogel; assay type: cell-based, Staphylococcus aureus
# Description: (§2) The Minimum Inhibitory Concentration (MIC) defines the lowest antibiotic concentration that inhibits 99.9% of bacterial growth.
# P. aeruginosa 27853 [4] = assay: as above; assay type: cell-based, Pseudomonas aeruginosa
# Description: as §2
# [5] = ciprofloxacin 30 μg/mL loaded in HA and SF gels
compound,measurement,setting,value
"O=C(O)c1cn(C2CC2)c2cc(N3CCNCC3)c(F)cc2c1=O [Ciprofloxacin, ciprofloxacin]",inhibition at 30 µg/mL,"S. aureus 13709 [1]; Staphylococcus aureus, 13709, gel loaded drug, 30 μg/mL, read-out: inhibition of bacterial growth",100%
same,time to complete inhibition of bacterial growth,S. aureus 13709 [1]; [5],around four
same,inhibition of bacterial growth,"S. aureus 13709 [1]; gel loaded drug, 30 μg/mL",more than 3 log10
same,inhibition at 30 µg/mL,"P. aeruginosa 27853 [2]; Pseudomonas aeruginosa, 27853, gel loaded drug, 30 μg/mL, read-out: inhibition of bacterial growth",100%
same,time to complete inhibition of bacterial growth,P. aeruginosa 27853 [2]; [5],around four
same,inhibition of bacterial growth,"P. aeruginosa 27853 [2]; gel loaded drug, 30 μg/mL",more than 3 log10
"C[C@@H](O)[C@H]1C(=O)N2C(C(=O)O)=C(SCCN=CN)C[C@H]12 [Imipenem, imipenem]",MIC,"S. aureus 13709 [3]; Staphylococcus aureus, 13709, S. aureus 13709, No Gel, read-out: Minimum Inhibitory Concentrations (MIC)",0.032 µg/mL
same,MIC,"S. aureus 13709 [3]; Staphylococcus aureus, 13709, S. aureus 13709, antibiotic delivered in HA thixogel, read-out: Minimum Inhibitory Concentrations (MIC)",< 0.032 µg/mL
same,MIC,"S. aureus 13709 [3]; Staphylococcus aureus, 13709, S. aureus 13709, antibiotic delivered in SF thixogel, read-out: Minimum Inhibitory Concentrations (MIC)",0.125 µg/mL
same,MIC,"P. aeruginosa 27853 [4]; Pseudomonas aeruginosa, 27853, P. aeruginosa 27853, No Gel, read-out: Minimum Inhibitory Concentrations (MIC)",2 µg/mL
same,MIC,"P. aeruginosa 27853 [4]; Pseudomonas aeruginosa, 27853, P. aeruginosa 27853, antibiotic delivered in HA thixogel, read-out: Minimum Inhibitory Concentrations (MIC)",4 µg/mL
same,MIC,"P. aeruginosa 27853 [4]; Pseudomonas aeruginosa, 27853, P. aeruginosa 27853, antibiotic delivered in SF thixogel, read-out: Minimum Inhibitory Concentrations (MIC)",> 4 µg/mL
"CN[C@H](CC(C)C)C(=O)N[C@H]1C(=O)N[C@@H](CC(N)=O)C(=O)N[C@H]2C(=O)N[C@H]3C(=O)N[C@H](C(=O)N[C@H](C(=O)O)c4cc(O)cc(O)c4-c4cc3ccc4O)[C@H](O)c3ccc(c(Cl)c3)Oc3cc2cc(c3O[C@@H]2O[C@H](CO)[C@@H](O)[C@H](O)[C@H]2O[C@H]2C[C@](C)(N)[C@H](O)[C@H](C)O2)Oc2ccc(cc2Cl)[C@H]1O [Vancomycin, vancomycin]",potency / coverage of both pathogenic bacteria,S. aureus 13709 [3]; S. aureus (Gram positive),did not give coverage of both
same,MIC,"S. aureus 13709 [3]; Staphylococcus aureus, 13709, read-out: Minimum Inhibitory Concentrations (MIC), S. aureus 13709, No Gel",2 µg/mL
same,MIC,"S. aureus 13709 [3]; Staphylococcus aureus, 13709, read-out: Minimum Inhibitory Concentrations (MIC), S. aureus 13709, antibiotic delivered in HA thixogel",16 µg/mL
same,MIC,"S. aureus 13709 [3]; Staphylococcus aureus, 13709, read-out: Minimum Inhibitory Concentrations (MIC), S. aureus 13709, antibiotic delivered in SF thixogel",4 µg/mL
same,potency / coverage of both pathogenic bacteria,P. aeruginosa 27853 [4]; P. aeruginosa (Gram negative),did not give coverage of both
same,MIC,"P. aeruginosa 27853 [4]; Pseudomonas aeruginosa, 27853, read-out: Minimum Inhibitory Concentrations (MIC), P. aeruginosa 27853, No Gel",> 4 µg/mL
same,MIC,"P. aeruginosa 27853 [4]; Pseudomonas aeruginosa, 27853, read-out: Minimum Inhibitory Concentrations (MIC), P. aeruginosa 27853, antibiotic delivered in HA thixogel",> 32 µg/mL
same,MIC,"P. aeruginosa 27853 [4]; Pseudomonas aeruginosa, 27853, read-out: Minimum Inhibitory Concentrations (MIC), P. aeruginosa 27853, antibiotic delivered in SF thixogel",> 32 µg/mL
gentamycin,effect of the gels (SF and HA) upon potency,S. aureus 13709 [3]; S. aureus,deleterious effect upon potency
same,Minimum Inhibitory Concentrations (MIC),"S. aureus 13709 [3]; S. aureus 13709, No Gel",1 µg/mL
same,Minimum Inhibitory Concentrations (MIC),"S. aureus 13709 [3]; S. aureus 13709, antibiotic delivered in HA thixogel",32 µg/mL
same,Minimum Inhibitory Concentrations (MIC),"S. aureus 13709 [3]; S. aureus 13709, antibiotic delivered in SF thixogel",8 µg/mL
same,effect of the gels (SF and HA) upon potency,P. aeruginosa 27853 [4]; P. aeruginosa,deleterious effect upon potency
same,Minimum Inhibitory Concentrations (MIC),"P. aeruginosa 27853 [4]; P. aeruginosa 27853, No Gel",2 µg/mL
same,Minimum Inhibitory Concentrations (MIC),"P. aeruginosa 27853 [4]; P. aeruginosa 27853, antibiotic delivered in HA thixogel",32 µg/mL
same,Minimum Inhibitory Concentrations (MIC),"P. aeruginosa 27853 [4]; P. aeruginosa 27853, antibiotic delivered in SF thixogel",32 µg/mL
